In this assay the test system is CD2F1 mice, P1798 lymphosarcoma sc, tumor weight T/C. The assay can be described thus: NCI In Vivo Anticancer Drug Screen. Data for tumor model P1798 Lymphosarcoma (subcutaneous) in CD2F1 (CDF1) mice. The note with it: endpoint: mean tumor weight, higher = larger tumour. The protocol: The antitumor activity of compounds was measured in mice bearing transplantable tumors. Survival or tumor size were measured and the results are expressed as the measurement made in the treated group (T) divided by the measurement made in the vehicle treated control group (C). The tumor model used in this assay is P1798 Lymphosarcoma (subcutaneous) in CD2F1 (CDF1) mice

The mark [1] stands for this setting: dose: 12.5 mg/kg/injection, schedule: Q01DX010 (sc), vehicle: steriod suspending solution.
Where [2] appears, read: dose: 50.0 mg/kg/injection, schedule: Q01DX010 (sc), vehicle: steriod suspending solution.
[3] abbreviates: dose: 12.5 mg/kg/injection, schedule: Q01DX010 (ip), vehicle: saline.
Where [4] appears, read: dose: 25.0 mg/kg/injection, schedule: Q01DX010 (ip), vehicle: saline.
Where [5] appears, read: dose: 50.0 mg/kg/injection, schedule: Q01DX010 (ip), vehicle: saline.
Where [6] appears, read: dose: 1.25 mg/kg/injection, schedule: Q01DX010 (ip), vehicle: saline.
The mark [7] stands for this setting: dose: 2.5 mg/kg/injection, schedule: Q01DX010 (ip), vehicle: saline.
[8] abbreviates: dose: 100.0 mg/kg/injection, schedule: Q01DX010 (ip), vehicle: saline.
[9] abbreviates: dose: 200.0 mg/kg/injection, schedule: Q01DX010 (ip), vehicle: saline.

SMILES strings stand for the structures. Values joined by “and” are separate entries in the source; they are usually repeats but may differ in a detail not shown here. Equal entries are not always repeated.

The term T/C denotes the result in the treated group divided by that in the control group, in per cent. In the case of `CC(=O)O[C@H]1CC[C@H]2[C@@H]3CC[C@H]4CCCC[C@]4(C)[C@H]3CC[C@]12C`, the T/C is 104 % of control and 121 % of control under setting [1]; 103 % of control and 85 % of control (dose: 25.0 mg/kg/injection, schedule: Q01DX010 (sc), vehicle: steriod suspending solution); 103 % of control under setting [2].

For the molecule `COc1cc(-c2ccc(Nc3ccccc3C(=O)O)c(OC)c2)ccc1Nc1ccccc1C(=O)O`, the T/C was 61 % of control under setting [3]; 53 % of control and 57 % of control under setting [4]; 12 % of control and 30 % of control under setting [5].

In the case of `CC(=O)[C@@]12OC(C)(C)O[C@@H]1C[C@H]1[C@@H]3C[C@H](C)C4=CC(=O)CC[C@]4(C)[C@H]3CC[C@@]12C`, the T/C is 72 % of control (dose: 12.5 mg/kg/injection, schedule: Q01DX005 (sc), vehicle: steriod suspending solution); 64 % of control under setting [1]; 61 % of control (dose: 25.0 mg/kg/injection, schedule: Q01DX005 (sc), vehicle: steriod suspending solution); 95 % of control (dose: 25.0 mg/kg/injection, schedule: Q02DX010 (sc), vehicle: steriod suspending solution); 56 % of control (dose: 25.0 mg/kg/injection, schedule: Q03DX004 (sc), vehicle: steriod suspending solution); 38 % of control (dose: 50.0 mg/kg/injection, schedule: Q01DX005 (sc), vehicle: steriod suspending solution). Moreover, the T/C was 88 % of control (dose: 50.0 mg/kg/injection, schedule: Q02DX010 (sc), vehicle: steriod suspending solution); 59 % of control (dose: 50.0 mg/kg/injection, schedule: Q03DX004 (sc), vehicle: steriod suspending solution); 13 % of control (dose: 100.0 mg/kg/injection, schedule: Q01DX005 (sc), vehicle: steriod suspending solution); 93 % of control (dose: 100.0 mg/kg/injection, schedule: Q02DX010 (sc), vehicle: steriod suspending solution); 16 % of control (dose: 100.0 mg/kg/injection, schedule: Q03DX004 (sc), vehicle: steriod suspending solution).

For `C[C@]12CC[C@H](O)C[C@@H]1CC[C@@H]1[C@@H]2C(=O)C[C@]2(C)C3=CC(=O)O[C@H]3C[C@@H]12`, the T/C (dose: 10.0 mg/kg/injection, schedule: Q01DX010 (sc), vehicle: steriod suspending solution) is 76 % of control and 83 % of control; the T/C (dose: 20.0 mg/kg/injection, schedule: Q01DX010 (sc), vehicle: steriod suspending solution) was 97 % of control; the T/C (dose: 40.0 mg/kg/injection, schedule: Q01DX010 (sc), vehicle: steriod suspending solution) is 87 % of control and 90 % of control; the T/C (dose: 80.0 mg/kg/injection, schedule: Q01DX010 (sc), vehicle: steriod suspending solution) was 78 % of control and 85 % of control.

Take `Cc1cc(C(C)(C)C)ccc1O`: the T/C runs as follows: (dose: 6.2 mg/kg/injection, schedule: Q01DX011 (ip), vehicle: carboxymethylcellulose (CMC)) 47 % of control; (dose: 12.5 mg/kg/injection, schedule: Q01DX011 (ip), vehicle: carboxymethylcellulose (CMC)) 105 % of control; (dose: 25.0 mg/kg/injection, schedule: Q01DX011 (ip), vehicle: carboxymethylcellulose (CMC)) 106 % of control.

As to `CN[C@H]1CCc2cc(OC)c(OC)c(OC)c2-c2ccc(OC)c(=O)cc21`, the T/C is, setting by setting: (dose: 0.63 mg/kg/injection, schedule: Q01DX010 (ip), vehicle: other) 108 % of control; (dose: 0.63 mg/kg/injection, schedule: Q01DX010 (ip), vehicle: saline) 59 % of control; (dose: 1.25 mg/kg/injection, schedule: Q01DX010 (ip), vehicle: other) 116 % of control; under setting [6], 82 % of control; (dose: 2.5 mg/kg/injection, schedule: Q01DX010 (ip), vehicle: other) 112 % of control; under setting [7], 57 % of control. Further, the T/C is, setting by setting: (dose: 5.0 mg/kg/injection, schedule: Q01DX010 (ip), vehicle: other) 96 % of control; (dose: 5.0 mg/kg/injection, schedule: Q01DX010 (ip), vehicle: saline) 32 % of control.

Consider `Cc1cn(C2OC(CO)C(O)C2O)c(=O)[nH]c1=O` (stereo not drawn), for which the T/C is, setting by setting: (dose: 62.5 mg/kg/injection, schedule: Q01DX010 (ip), vehicle: saline) 97 % of control; under setting [8], 67 % of control; (dose: 125.0 mg/kg/injection, schedule: Q01DX010 (ip), vehicle: saline) 96 % of control; under setting [9], 80 % of control; (dose: 250.0 mg/kg/injection, schedule: Q01DX010 (ip), vehicle: saline) 72 % of control; (dose: 400.0 mg/kg/injection, schedule: Q01DX010 (ip), vehicle: saline) 85 % of control. The T/C is, setting by setting: (dose: 500.0 mg/kg/injection, schedule: Q01DX010 (ip), vehicle: saline) 69 % of control; (dose: 800.0 mg/kg/injection, schedule: Q01DX010 (ip), vehicle: saline) 75 % of control.

With `COc1ccc2cc3[n+](cc2c1OC)CCc1cc2c(cc1-3)OCO2`, the T/C (dose: 12.0 mg/kg/injection, schedule: Q01DX011 (ip), vehicle: saline) is 75 % of control.

Turning to `NC(CCSCc1ccc(N(CCCl)CCCl)cc1)C(=O)O` (stereo not drawn), the T/C (dose: 4.5 mg/kg/injection, schedule: Q01DX010 (ip), vehicle: saline) was 108 % of control; the T/C (dose: 9.0 mg/kg/injection, schedule: Q01DX010 (ip), vehicle: saline) is 86 % of control; the T/C (dose: 18.0 mg/kg/injection, schedule: Q01DX010 (ip), vehicle: saline) was 98 % of control; the T/C (dose: 36.0 mg/kg/injection, schedule: Q01DX010 (ip), vehicle: saline) is 93 % of control.

Turning to `COc1cc([C@@H]2c3cc4c(cc3[C@H](O)[C@H]3COC(=O)[C@H]23)OCO4)cc(OC)c1OC`, the T/C (dose: 0.9 mg/kg/injection, schedule: Q01DX011 (ip), vehicle: carboxymethylcellulose (CMC)) was 56 % of control; the T/C (dose: 1.7 mg/kg/injection, schedule: Q01DX011 (ip), vehicle: carboxymethylcellulose (CMC)) was 111 % of control; the T/C (dose: 2.2 mg/kg/injection, schedule: Q01DX011 (ip), vehicle: carboxymethylcellulose (CMC)) was 80 % of control.

With `NC(Cc1c[nH]c2ccc(N(CCCl)CCCl)cc12)C(=O)O` (stereo not drawn), the T/C (dose: 0.25 mg/kg/injection, schedule: Q01DX010 (ip), vehicle: saline) was 106 % of control; the T/C (dose: 0.5 mg/kg/injection, schedule: Q01DX010 (ip), vehicle: saline) is 97 % of control; the T/C (dose: 1.0 mg/kg/injection, schedule: Q01DX010 (ip), vehicle: saline) is 40 % of control; the T/C (dose: 2.0 mg/kg/injection, schedule: Q01DX010 (ip), vehicle: saline) was 13 % of control.

On to `O=C1C=Cc2ccc(O)cc2C1=O`, for which the T/C is 72 % of control under setting [6] and 63 % of control under setting [7].

In the case of `NC(=O)n1cccn1`, the T/C was 84 % of control under setting [4], 75 % of control under setting [5], 71 % of control under setting [8] and 45 % of control under setting [9].

For the molecule `CN(C)CCCN1c2ccccc2Sc2ccc(C(F)(F)F)cc21`, the T/C reads like this: under setting [3], 55 % of control; under setting [4], 19 % of control.

Take `NCCCCC(N)C(=O)NCCCCCCCCCCNC(=O)C(N)CCCCN` (stereo not drawn): the T/C was 106 % of control (dose: 6.25 mg/kg/injection, schedule: Q01DX010 (ip), vehicle: saline); 99 % of control under setting [3]; 122 % of control under setting [4]; 107 % of control under setting [5].

`CCN(CC)CCNc1ccc(C)c2sc3ccccc3c(=O)c12`: the T/C is, setting by setting: under setting [3], 76 % of control; under setting [4], 31 % of control and 43 % of control; under setting [5], 10 % of control and 29 % of control; under setting [8], 10 % of control.

For `C[C@]12CC[C@@H]3c4ccc(O)cc4CC[C@H]3[C@@H]1C[C@H](O)C2`, the T/C reads like this: (dose: 6.25 mg/kg/injection, schedule: Q01DX010 (sc), vehicle: steriod suspending solution) 102 % of control; under setting [1], 95 % of control and 109 % of control; under setting [2], 111 % of control and 112 % of control.

In the case of `CCC(=O)O[C@H]1CC[C@H]2[C@@H]3CC[C@H]4CC(=O)[C@H](C)C[C@]4(C)[C@H]3CC[C@]12C`, the T/C by setting is: (dose: 15.6 mg/kg/injection, schedule: Q01DX010 (sc), vehicle: steriod suspending solution) 110 % of control; (dose: 31.3 mg/kg/injection, schedule: Q01DX010 (sc), vehicle: steriod suspending solution) 120 % of control; (dose: 62.5 mg/kg/injection, schedule: Q01DX010 (sc), vehicle: steriod suspending solution) 112 % of control; (dose: 125.0 mg/kg/injection, schedule: Q01DX010 (sc), vehicle: steriod suspending solution) 91 % of control and 77 % of control; (dose: 250.0 mg/kg/injection, schedule: Q01DX010 (sc), vehicle: steriod suspending solution) 88 % of control; (dose: 500.0 mg/kg/injection, schedule: Q01DX010 (sc), vehicle: steriod suspending solution) 96 % of control. The T/C (dose: 1000.0 mg/kg/injection, schedule: Q01DX010 (sc), vehicle: steriod suspending solution) is 88 % of control.

The values above are taken from PubChem BioAssay AID268 (DTP/NCI, 2004).
